The record followed here is PubChem BioAssay AID179 (DTP/NCI, 2004).

The test relates to CEM cells HIV-1 protection, formazan growth assay. Nature of the test: NCI AIDS Antiviral Assay. Particulars: for IC50: measured here: growth of uninfected CEM cells. The method in brief: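 Protection of CEM cells against HIV-1 was scored from cell growth (soluble formazan) across five concentrations, with parallel uninfected cells. Lack of protection may reflect toxicity.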

Values joined by “and” are separate entries in the source; they are usually repeats but may differ in a detail not shown here. Equal entries are not always repeated. Active and inactive are the calls of the source.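 How the source made its calls: active means compounds giving half or more protection of infected cells from virus-caused growth loss, again on retest; inactive means the rest.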 Where a SMILES comes first, the peptide text is derived from it. [ ]: non-standard residue; d: D form. The star is where a group is joined. ξ: configuration not given here. Boc = CC(C)(C)OC(=O)*; OBn = c1ccc(CO*)cc1; ξP = O=C(O)C1CCCN1

The term EC50 denotes the concentration that produces a half-maximal response. In general, IC50 refers to the concentration that gives 50% inhibition. Turning to `COC(=O)C(Cc1nc2ccc(Cl)cc2[nH]c1=O)/C(=N\N)C(=O)Nc1cc(C)c(Cl)cc1S(=O)(=O)O` (stereo not given), the EC50 is over 447 µM and the IC50 worked out at 115 µM.
Take `O=c1nc2n(c3ncccc13)CC=NN2`: the EC50 was over 200 µM and the IC50 was over 200 µM.
Take `COC1(c2ccc(C)cc2C)OC(=O)c2c(C)cccc21` (stereo not given): the outcome was inactive.
For the compound `CN(C)C=C1C(=O)NC(=O)NC1=O`, the EC50 was over 200 µM and the half-maximal inhibitory concentration (IC50) is over 200 µM.
For the compound `Cc1cn(C2CC(F)C(CO)O2)c(=O)[nH]c1=O` (stereo not given), the EC50 is 0.011 µM and the IC50 came out at 2 µM.
For `Cc1cccc(/C=N\NC(=S)N2CCCCC2)n1` the same measures were over 200 µM and 0.0631 µM.
For `CC(=O)[CH-]C(C)=O.CC(=O)[CH-]C(C)=O.[CH2-]CCC.[CH2-]CCC.[Sn+4]` the same measures were over 60.3 µM and 0.661 µM.
Taken in the same sequence, the figures for `C/C(=C\CCC1=CC(=O)OC1)CCC1C2C(=O)CC(C)[C@@]3(C)CC[C@]1(C)[C@@]23C` (stereo not given in full) were over 200 µM and 34.7 µM.
`Cn1c(=O)c2c(nc(NCCCCl)n2CC(=O)NCCCCl)n(C)c1=O`: the EC50 is over 200 µM and the half-inhibitory concentration (IC50) is over 200 µM.
Take `Cc1cc(N(CCC#N)CCC#N)ccc1/C(N=Nc1ccc([N+](=O)[O-])cc1)=N\NC(=O)c1cc(Cl)ccc1C(=O)c1ccccc1`: the EC50 is over 200 µM and the IC50 came out at 11.2 µM.
Taken in the same sequence, the figures for `CN(C)CC1CCCCC1O` (stereo not given) were over 1290 µM and over 1290 µM.
As for `O=C(OC[C@H]1OC(OC(=O)c2ccccc2)C(=O)C2(OC(=O)c3ccccc3)C3C=CC(C3)C12)c1ccccc1` (stereo not given in full), the result was inactive.
Same read-out and setting: with `COC(=O)C(=O)OC1(C(C)=O)CC2(c3ccccc3)OC1(c1ccccc1)c1ccccc12` (stereo not given) the entry was “inactive”.
Take `CC(C)OC(=S)Nc1ccc(Cl)c(COC(C)(C)C)c1`: the EC50 is 5.37 µM and the IC50 is 31.6 µM.
As for `CCSC(SCC)=C1C(=O)N(c2ccccc2)N=C1C`, the EC50 is over 44.7 µM and the half-inhibitory concentration (IC50) was over 44.7 µM.
For `CCC[CH2][Sn]([CH2]CCC)([CH2]CCC)[CH2]S(=O)(=O)O`, the outcome was inactive.
As to `COc1ccc(C(=O)c2ccccc2O)c(O)c1`, the EC50 was over 200 µM and the IC50 was over 100 µM.
Take `O=C1NC(SSC2=NNC3(C(=O)N2)c2ccccc2-c2ccccc23)=NNC12c1ccccc1-c1ccccc12`: the result was inactive.
Turning to `CCOC(=O)/C(O)=C/c1cc(=O)n(C)c2ccccc12`, the EC50 is over 200 µM and the IC50 was over 200 µM.
As for `Cc1nc2ccccc2c(=O)n1-c1ccccc1Cl`, the EC50 is over 182 µM and the IC50 was 148 µM.
Taken in the same sequence, the figures for `COCCCCCCCCCCCC(=O)OCC1OC(n2cc(C)c(=O)[nH]c2=O)CC1N=[N+]=[N-]` (stereo not given) were 0.0269 µM and 34.7 µM.
For `CCC(C)(C)/C(CC(O)(C(F)(F)F)C(F)(F)F)=N\O` the same measures were over 200 µM and over 200 µM.
Taken in the same sequence, the figures for `c1ccc2c3c([nH]c2c1)C1C2CCCCN2C(c2ccncc2)N1CC3` (stereo not given) were over 75.9 µM and 42.7 µM.
Turning to `COc1ccc(/C=C2\SC(c3ccc(OC)cc3)N(NC(=O)Cc3ccccc3)C2=O)cc1` (stereo not given), the EC50 is over 15.5 µM and the IC50 is over 15.5 µM.
On to `COc1cccc(C(=O)N[C@@H]2[C@H](O)[C@@H](CO)O[C@H]2n2cnc3c(N)ncnc32)c1`, for which the EC50 is over 200 µM and the IC50 is over 200 µM.
In the case of `O=C1/C(=C/c2ccc(O)cc2)CCc2ccc([N+](=O)[O-])cc21`, the EC50 is over 200 µM and the IC50 was found to be 81.3 µM.
For `CCOc1cc(/C=C2\N=C(c3ccccc3)OC2=O)ccc1O` the same measures were over 23.4 µM and over 23.4 µM.
For `CCOC(=O)c1c(N2CCCC2)ncn(C)c1=S` the same measures were over 200 µM and over 200 µM.
Regarding `CC1=CC(C)S(=O)(=O)C1` (stereo not given), the EC50 is over 200 µM and the IC50 is over 200 µM.
As for `O=S(=O)(c1ccc(N=C=S)cc1)N1CCCCC1`, the EC50 was over 200 µM and the IC50 stood at 97.7 µM.
With `COc1cc2c3c(c1OC)C1(C=CC(=O)C=C1)CC3N(C(C)=O)CC2` (stereo not given), the outcome was inactive.
With `Nc1ccc2oc(=O)ccc2c1`, the EC50 is over 1260 µM and the IC50 was 8.91 µM.
For `COC(=O)C(C(=O)C(=O)Nc1ccc(C)cc1C)c1csc(-n2nc(-c3ccccc3)cc2-c2ccccc2)n1` (stereo not given) the same measures were over 158 µM and 81.3 µM.
For the compound `CCOC(=O)COc1ccc(C[C@H](NC(=O)O[C@H]2CCOC2)[C@H](O)CN(CC(C)C)S(=O)(=O)c2ccc(N)cc2)cc1`, the EC50 is 0.0589 µM and the IC50 amounted to 64.6 µM.
For `CCOC(=O)C(C#N)C1=CC(=O)C(=O)c2ccc(O)cc21` (stereo not given) the same measures were over 457 µM and 209 µM.
On to `COC(=O)c1cc2cc(O)c(O)cc2cn1`, for which the EC50 is over 200 µM; the IC50 is > 8.32 µM and 12 µM.
As to `CCCc1nn(C)c(CCC(=O)N(Cc2ccccc2)Cc2ccccc2)c1CC`, the result was inactive.
Consider `O=C(CC1C=CCS1(=O)=O)NCc1ccccc1` (stereo not given), for which the EC50 was over 97.7 µM and the IC50 was over 97.7 µM.
As for `Cc1ccc(/C(C#N)=C/c2ccc(N(C)C)cc2)cc1`, the EC50 was over 200 µM and the IC50 is 1.29 µM.
Regarding `COc1ccc(C2=NN(C(C)=O)c3nc4ccccc4nc3O2)cc1`, the result was inactive.
`COc1c(C)c(C/C=C(\C)CCCC(C)CCCC(C)CCCC(C)C)c(OC)c2ccccc12` (stereo not given): the EC50 was over 200 µM and the IC50 was over 200 µM.
As to `Cc1cccc(NC(=O)Nc2ccc(F)cc2)n1`, the EC50 is 129 µM and the IC50 is over 200 µM.
As to `CCn1nc2c3c(ncn3C(C)(C)O2)c1=O`, the EC50 was over 200 µM and the IC50 is over 200 µM.
For `O=c1oc(-c2ccccc2)nnc1-c1ccccc1`, the EC50 was over 178 µM and the IC50 is over 178 µM.
For the compound `CCCCOCCOC(=O)C1C(C=C(C)C)C1(C)C` (stereo not given), the EC50 is over 200 µM and the IC50 is over 200 µM.
Turning to `O=c1c2cc([N+](=O)[O-])ccc2[nH]n1Cc1ccccn1`, the EC50 is over 200 µM and the IC50 was over 200 µM.
Consider `S=c1n(-c2ccc(Cl)cc2)c2nc3ccccc3nc(/c2=N\Nc2ccccc2)n1-c1ccc(Br)cc1`, for which the EC50 was over 61.7 µM and the IC50 is 31.6 µM.
Taken in the same sequence, the figures for `CC(OC(=O)NCn1cc(-c2ccccc2)nn1)c1ccccc1` (stereo not given) were 56.2 µM and 75.9 µM.
Taken in the same sequence, the figures for `CS(=O)(=O)Nc1ccc2ccccc2c1-c1c(NS(C)(=O)=O)ccc2ccccc12` were over 50.1 µM and 47.9 µM.
As for `CCN(CC)c1cc2oc(=O)cc(C)c2cc1NC(=O)c1ccccc1`, the EC50 was over 45.7 µM and the half-inhibitory concentration (IC50) came to 2.51 µM.
For `C/C(=C\CCC1=CC(=O)OC1)CC[C@@H]1[C@H]2C(=O)CC(C)[C@@]3(C)CC[C@]1(C)[C@@]23C` (stereo not given in full) the same measures were over 200 µM and 34.7 µM.
For `O=C(C/C(=N/O)C(F)(F)F)c1cccs1` the same measures were over 200 µM and over 200 µM.
For `O=C1c2ccccc2C(=O)N1CCS(=O)(=O)CCS(=O)(=O)CCN1C(=O)c2ccccc2C1=O` the same measures were over 200 µM and over 200 µM.
On to `O=S1(=O)c2ccccc2N2CCCc3cc(Cl)cc1c32`, for which the EC50 was over 200 µM and the IC50 was over 200 µM.
Regarding `CCCCCCC[CH2][Sn]([Cl])([Cl])[CH2]CCCCCCC`, the result was inactive.
As to `CC(C)(C)OC(=O)N[C@@H](Cc1ccccc1)C(=O)N1CCCC1C(=O)OCc1ccccc1` (stereo partly drawn) (Boc-Phe-[ξP]-OBn), the EC50 was over 41.7 µM and the concentration for half-maximal inhibition (IC50) is over 41.7 µM.
Take `CCOC(=O)C(NCc1ccccc1)(NC(=O)c1ccccc1)C(F)(F)F` (stereo not given): the outcome was inactive.
Take `NC(=O)N/N=C(/c1nc2ccc([N+](=O)[O-])cc2[nH]c1=O)C(O)c1ccco1` (stereo not given): the EC50 was over 182 µM and the IC50 is over 182 µM.
`NCC#CCNCCCN1CC1`: the EC50 is over 200 µM and the IC50 was over 200 µM.
Consider `Cn1cc(S(=O)(=O)NC(=O)Nc2ccc(Cl)cc2)c(=O)c2ccc(F)cc21`, for which the outcome was inactive.
Same read-out and setting: with `CNC(=O)[C@@H](C)C1C(=O)/C(=C(O)\C=C\C(C)C)C(=O)N1C1CCC(O)C(C)O1` (stereo not given in full) the entry was “inactive”.
For the compound `COc1ccc([C@@H]2CC(=O)NCCCCNCCCN2)cc1`, the EC50 was over 200 µM and the IC50 was over 200 µM.
With `CN(C)CCNC(=O)Cc1ccccc1Nc1c(Cl)cccc1Cl`, the EC50 was over 200 µM and the IC50 was determined as 30.2 µM.
Turning to `CCOP(=O)(OCC)/C(F)=C/c1ccc(F)cc1`, the outcome was inactive.
In the case of `Cc1c(N2CCOCC2)nc2ccc(Cl)cc2c1-c1ccccc1`, the EC50 was over 4.27 µM and the IC50 was over 4.27 µM.
Turning to `CCC(=O)C(CCN1CCC(N2C(=O)C(CCC#N)c3ccccc32)CC1)(c1ccccc1)c1ccccc1` (stereo not given), the EC50 is over 200 µM and the 50% inhibitory concentration (IC50) turned out to be 28.8 µM.
Taken in the same sequence, the figures for `C=Cc1cc[n+](CCCCC[n+]2ccc(C=C)cc2)cc1` were over 100 µM and over 100 µM.
Regarding `CC1=C(C(=O)NCCCN(CCO)CCO)CC(C(=O)NCCCN(CCO)CCO)=C(C)N1`, the EC50 was over 200 µM and the IC50 amounted to 112 µM.
For `O=C1NC(=O)[C@@]2(CCOc3ccc(F)cc32)N1` the same measures were over 741 µM and 661 µM.
Taken in the same sequence, the figures for `OC(c1cc2ccccc2[nH]1)C(O)(c1cc2ccccc2[nH]1)c1cc2ccccc2[nH]1` (stereo not given) were over 12.9 µM and 11 µM.
`COC(=O)C1(C#N)C(C)(C)N=C(c2ccccc2)C12CCCCC2` (stereo not given): the EC50 is over 200 µM and the IC50 worked out at 93.3 µM.
For `N#CC(c1ccccc1)N(CCCCCCN(C(=O)c1ccccc1)C(C#N)c1ccccc1)C(=O)c1ccccc1` (stereo not given) the same measures were over 200 µM and 61.7 µM.
Taken in the same sequence, the figures for `CN1C2CCC1CC(O)C2` (stereo not given) were over 1780 µM and over 1780 µM.
Consider `O=C1NCN(c2ccccc2)C12CCN(CC1COc3ccccc3O1)CC2` (stereo not given), for which the EC50 is over 200 µM and the IC50 was over 200 µM.
